# Measured values reported in US10799501B2, “Combination of an inhibitor of PARP with an inhibitor of GSK-3 or DOT1L” (King's College London, priority 2015, dated 2020).
# Legend:
# [1] = tested on: MLL-AF9 transformed cells; experiment: In vitro drug treatment of primary murine hematopoietic cells transformed by MLL-AF9 (RTTA); type: cell-based, mouse
# Experimental: (§1) Transduction using concentrated viral supernatant expressing the oncogene of interest was carried out by centrifugation (spinoculation) at 800 g at 32° C. for 2 hours in the presence of 5 μg ml^-1 polybrene (Sigma-Aldrich). Cells were subsequently plated in 1% methylcellulose medium ([…]; Stem Cell Technologies) containing 20 ngml^-1 SCF, 10 ngml^-1 IL-3, 10 ngml^-1 IL-6 and 10 ngml^-1 granulocyte macrophage colony-stimulating factor (GM-CSF) and appropriate selection antibiotic. Colonies were counted after 7 days of culture and replated every 6-7 days at 5×103-1.5×10^4 cell density. Re-plating was performed weekly to generate primary cell lines for further analysis. After the third or fourth round of plating, cells were cultured in R20/20 medium (RPMI 1640, 20% FCS, 20% WEHI-conditioned medium, 2 mM L-glutamine, 100 U/ml penicillin, and 100 μg/ml streptomycin) supplemented with 20 ngml^-1 stem cell factor (SCF), 10 ngml^-1 interleukin (IL)-3, and 10 ngml^-1 IL-6 to establish cell lines. All recombinant murine cytokines were from PeprotechEC. […] Colonies were scored 6-7 days after plating. For other in vitro studies, mouse leukemic cells and primary AML cell lines were subjected to continuously Olaparib (1 μM) or LiCl (8 mM) treatment in liquid culture for whole duration as indicated in the figures or figure legends. For human leukemic cell lines, experiments were performed as described above with 5 μM Olaparib. Cells were cytospun onto a glass slide at 400 g for 5 minutes and then fixed for 10 minutes with 2% formaldehyde/0.2% glutaraldehyde (Sigma Aldrich). Cells were then washed with PBS, and then incubated at 37° C. for at least 2 hours with a staining solution (30 mM Citric Acid/Phosphate buffer, 5 mM K4Fe(CN)6, 5 mM K3Fe(CN)6, 150 mM NaCl, 2 mM MgCl2, 1 mg/ml X-Gal) (All reagents from Sigma-Aldrich)62. Cells were counted in at least 5 fields for each slide, for a total of over 100 cells. The percentage of senescent cells was calculated by the percentage of the number of blue cell in the field. Cells were cytospun onto a glass slide at 400 g for 5 minutes and then fixed for 30 minutes in 4% PFA and permeabilized and blocked in 0.8% Tx-100, 10% FBS/1% BSA (Sigma-Aldrich) in PBS for 15 min at room temperature. […] Cells were counted in at least 5 fields for each slide, for a total of over 100 cells per condition. […] Cells were counted in at least 5 fields for each slide, for a total of over 100 cells per condition. […] Cells were then washed in PBS and the differentiated cells were indicated by the deposition of dark blue insoluble formazan (NBT positive cells) and the percentage of differentiated cells were counted under microscopy. At least 200 cells were counted in most of the cases.
# [2] = tested on: E2A-PBX transformed cells; experiment: In vitro drug treatment of primary murine hematopoietic cells transformed by E2A-PBX (RTTA); type: cell-based, mouse
# Experimental: as §1, with “Cells were cytospun onto a glass slide at 400 g for 5 minutes and then fixed for 10 minutes with 2% formaldehyde/0.2% glutaraldehyde (Sigma Aldrich). Cells were then washed with PBS, and then incubated at 37° C. for at least 2 hours with a staining solution (30 mM Citric Acid/Phosphate buffer, 5 mM K4Fe(CN)6, 5 mM K3Fe(CN)6, 150 mM NaCl, 2 mM MgCl2, 1 mg/ml X-Gal) (All reagents from Sigma-Aldrich)62.” left out, “field.” for “field. Cells were cytospun onto a glass slide at 400 g for 5 minutes and then fixed for 30 minutes in 4% PFA and permeabilized and blocked in 0.8% Tx-100, 10% FBS/1% BSA (Sigma-Aldrich) in PBS for 15 min at room temperature.”
# [3] = tested on: normal mouse bone marrow c-Kit+ cells; experiment: Dose-response titration on normal bone marrow cells in methylcellulose; type: cell-based; conditions: undetectable/minimal effects on normal primary bone marrow cells
# Experimental: Colonies were scored 6-7 days after plating. For other in vitro studies, mouse leukemic cells and primary AML cell lines were subjected to continuously Olaparib (1 μM) or LiCl (8 mM) treatment in liquid culture for whole duration as indicated in the figures or figure legends. For human leukemic cell lines, experiments were performed as described above with 5 μM Olaparib.
# NB4-LR2 (PML-RARα) = experiment: In vitro PARPi treatment of human leukemic cell line NB4-LR2; type: cell-based
# Experimental: NB4-LR2 and THP1 cell lines (kindly provided by Dr Arthur Zelent and Professor Mel Greaves respectively) were cultured in RPMI (Invitrogen) supplemented with 10% selected FBS (R10), 2 mM L-Glutamine. Kasumi cell line (kindly provided by Dr Olaf Heidenreich) was cultured in RPMI-Hepes modified (Sigma) supplemented with 20% selected FBS and 2 mM L-[…]). Cell lines were validated by qPCR for their respective oncogenes. NIH3T3 and GP2 cell line was cultured in DMEM (Invitrogen) supplemented with 10% selected FBS and 2 mM L-Glutamine. Human primary AML cells were cultured in IMEM (Invitrogen) supplemented with […], 2 mM L-Glutamine, 10 ng/mL each of human cytokines, IL3, IL6, SCF, FLT3 ligand, and TPO. Cells were kept at 37° C. and 5% CO2. Use of human primary cells was approved by King's College London committee and consents of the patients were obtained. […] Colonies were scored 6-7 days after plating. […] Samples were then washed in PBS analysed at the FACS LSRII (BD Biosciences Pharmingen) with FACS Diva. […] Cells were counted in at least 5 fields for each slide, for a total of over 100 cells. The percentage of senescent cells was calculated by the percentage of the number of blue cell in the field.
# [4] = 1 uM Olaparib, methylcellulose 7 days
smiles,measurement,setting,value
"O=C(c1cc(Cc2n[nH]c(=O)c3ccccc23)ccc1F)N1CCN(C(=O)C2CC2)CC1 [Olaparib, 4-[(3-[(4-cyclopropylcarbonyl)piperazin-4-yl]carbonyl)-4-fluorophenyl]methyl(2H)-phthalazin-1-one]",impact on colony forming ability,[1]; [4],little impact
same,"differentiation, G1 arrest, senescence, apoptosis effects",[1]; PARPi treatment,none of these effects were observed
same,Rad51 recruitment to DNA damage sites (RAD51 foci),[1]; PARPi treatment for 6 hours,able to form RAD51 foci
same,impact on colony forming ability,[2]; [4],little impact
same,"differentiation, G1 arrest, senescence, apoptosis effects",[2]; PARPi treatment,none of these effects were observed
same,Rad51 recruitment to DNA damage sites (RAD51 foci),[2]; PARPi treatment for 6 hours,able to form RAD51 foci
same,in vitro maximal tolerable dose,[3],up to 1 uM
same,senescence and apoptosis,NB4-LR2 (PML-RARα); PARPi 72 hrs / 4 days,effectively induce senescence and apoptosis
same,colony forming ability,"NB4-LR2 (PML-RARα); methylcellulose 7 days, 5 μM Olaparib",reduced the colony forming ability
